Test results published in DBAASP.
Converted amounts (≈) assume the structure as drawn. “And” between values parts separate entries of the source, which are not always exact repeats. Equal values may be shown once. One block for each molecule: values may come before it.

What was measured:
Test in all cases: ≥ marks a high value that may be exact or a test limit, other limits are often not marked, values filed in µg/mL are converted to µM
[1] = system: Escherichia coli NCTC 10418
[2] = system: Staphylococcus aureus ATCC 12493
[3] = system: Staphylococcus aureus NCTC 10788
[4] = system: Candida albicans NCPF 1467
[5] = system: Fusarium solani MTCC 10158
[6] = system: Staphylococcus aureus ATCC 25923
[7] = system: Candida albicans NCTC 3179
[8] = system: Escherichia coli ATCC 25922
Pseudomonas syringae = system: Pseudomonas syringae
[9] = system: Xanthomonas axonopodis pv. phaseoli ATCC 9563
Saccharomyces cerevisiae = system: Saccharomyces cerevisiae
[10] = system: Listeria monocytogenes KCTC 3710
[11] = system: Aspergillus fumigatus KCTC 6145
Staphylococcus aureus = system: Staphylococcus aureus
[12] = system: Staphylococcus epidermidis
[13] = system: Escherichia coli O157:H7 ATCC 43895
Escherichia coli = system: Escherichia coli
Botrytis cinerea = system: Botrytis cinerea
[14] = system: Aspergillus flavus KCTC 9471
Salmonella typhimurium = system: Salmonella typhimurium
[15] = system: Candida albicans KCTC 7270
Bacillus subtilis = system: Bacillus subtilis
Trichosporon beigelii = system: Trichosporon beigelii
Fusarium verticillioides = system: Fusarium verticillioides
Proteus vulgaris = system: Proteus vulgaris
Pseudomonas aeruginosa = system: Pseudomonas aeruginosa
Staphylococcus aureus MR = system: Staphylococcus aureus MR
Enterococcus faecalis VR = system: Enterococcus faecalis VR
[16] = system: Fusarium oxysporum f. sp. lycopersici ATCC 201829
[17] = system: Rhizopus stolonifer CECT 2344
[18] = system: Aspergillus niger CECT 2694
[19] = system: Penicillium expansum EPS 26
[20] = system: Bacillus subtilis KCTC 1998
[21] = system: Pseudomonas aeruginosa ATCC 15692
[22] = system: Listeria monocytogenes ATCC 3710
[23] = system: Staphylococcus aureus ATCC 29213
[24] = system: Proteus vulgaris KCTC 2433

MIC [1]: ≥ 512 µM
MIC [2]: 16 µM (≈ 36.2 µg/mL)
MIC [3]: 16 µM (≈ 36.2 µg/mL)
MIC [4]: 16 µM (≈ 36.2 µg/mL)
SMILES: CC(C)C[C@H](NC(=O)[C@H](CC(C)C)NC(=O)[C@H](CC(C)C)NC(=O)[C@@H]1CCCN1C(=O)[C@H](CC(C)C)NC(=O)[C@@H](N)Cc1ccccc1)C(=O)N[C@@H](C)C(=O)NCC(=O)N[C@@H](CC(C)C)C(=O)N1CCC[C@H]1C(=O)N[C@@H](CCCCN)C(=O)N[C@@H](Cc1ccccc1)C(=O)N[C@@H](CC(C)C)C(=O)N[C@H]1CSSC[C@@H](C(=O)O)NC(=O)[C@H](CCCCN)NC(=O)[C@H](CCCCN)NC(=O)[C@H](Cc2ccccc2)NC(=O)[C@H](C(C)C)NC(=O)[C@H](CC(C)C)NC1=O [FLPLLLAGLPKFLCLVFKKC]

MIC [5]: 22.4 µM and ≥ 50 µM
SMILES: CC(C)C[C@H](NC(=O)[C@H](C)NC(=O)[C@H](CCCCN)NC(=O)[C@H](CC(C)C)NC(=O)[C@H](CCCCN)NC(=O)[C@H](CCCN=C(N)N)NC(=O)[C@H](CCCN=C(N)N)NC(=O)[C@H](Cc1c[nH]c2ccccc12)NC(=O)[C@H](C)N)C(=O)N[C@@H](C)C(=O)N1CCC[C@H]1C(=O)N[C@@H](C)C(=O)N[C@@H](CCCCN)C(=O)N[C@@H](CCCCN)C(=O)N[C@@H](C)C(=O)N[C@@H](CCCCN)C(=O)N[C@H](C(=O)O)C(C)C [AWRRKLKALAPAKKAKV]

MIC [6]: 1.66 µM (≈ 4.8 µg/mL)
MIC [7]: 24.8 µM (≈ 72 µg/mL)
MIC [8]: 1.97 µM (≈ 5.7 µg/mL)
SMILES: CC[C@H](C)[C@H](NC(=O)[C@H](CCCCN)NC(=O)[C@@H](NC(=O)[C@@H](NC(=O)[C@H](C)NC(=O)[C@@H]1CCCN1C(=O)[C@H](CC(C)C)NC(=O)[C@H](Cc1c[nH]c2ccccc12)NC(=O)[C@@H](N)[C@@H](C)O)C(C)C)[C@@H](C)CC)C(=O)N[C@@H](CCC(N)=O)C(=O)N[C@@H](C)C(=O)N[C@@H](Cc1cnc[nH]1)C(=O)N[C@@H](Cc1c[nH]c2ccccc12)C(=O)N[C@@H](CCCN=C(N)N)C(=O)NCC(=O)N[C@@H](Cc1ccc(O)cc1)C(=O)N[C@@H](CCCN=C(N)N)C(=O)N[C@@H](CCC(N)=O)C(=O)N[C@@H](CCCN=C(N)N)C(=O)N[C@@H](CCCCN)C(=O)N[C@H](C(=O)N[C@@H](Cc1ccc(O)cc1)C(=O)N[C@@H](CC(C)C)C(=O)O)[C@@H](C)CC [TWLPAVIKIQAHWRGYRQRKIYL]

MIC (Pseudomonas syringae): 8 µM (≈ 24.3 µg/mL)
MIC [9]: 2 µM (≈ 6.09 µg/mL)
SMILES: CC[C@H](C)[C@H](NC(=O)[C@H](CCCCN)NC(=O)[C@H](CC(N)=O)NC(=O)[C@H](CCCCN)NC(=O)[C@H](CC(C)C)NC(=O)[C@H](Cc1ccc(O)cc1)NC(=O)[C@H](CCC(N)=O)NC(=O)[C@H](CCCN=C(N)N)NC(=O)[C@@H](NC(=O)[C@@H](NC(=O)[C@H](CCCCN)NC(=O)[C@H](CCCCN)NC(=O)CNC(=O)[C@H](C)N)[C@@H](C)O)[C@@H](C)CC)C(=O)N[C@@H](CCCCN)C(=O)N[C@@H](CCCCN)C(=O)N[C@@H](CCCCN)C(=O)NCC(=O)N[C@@H](CCCN=C(N)N)C(=O)N[C@@H](CCCCN)C(=O)N[C@@H](Cc1c[nH]c2ccccc12)C(=O)N[C@H](C(=O)N[C@H](C(=O)N[C@@H](C)C(=O)N[C@@H](Cc1c[nH]c2ccccc12)C(=O)O)[C@@H](C)CC)C(C)C [AGKKTIRQYLKNKIKKKGRKWVIAW]

MIC (Saccharomyces cerevisiae): 25 µM (≈ 59.3 µg/mL)
MIC [10]: 0.78 µM (≈ 1.85 µg/mL)
MIC [11]: ≥ 35.4 µM
MIC (Staphylococcus aureus): 3.13 µM (≈ 7.42 µg/mL)
MIC [12]: 6.25 µM (≈ 14.8 µg/mL)
MIC [13]: 6.25 µM (≈ 14.8 µg/mL)
MIC (Escherichia coli): 3.13 µM (≈ 7.42 µg/mL)
MIC (Botrytis cinerea): 12.5 µM (≈ 29.6 µg/mL)
MIC [14]: ≥ 50 µM
MIC (Salmonella typhimurium): 0.39 µM (≈ 0.925 µg/mL)
MIC [15]: 25 µM (≈ 59.3 µg/mL)
MIC (Bacillus subtilis): 1.56 µM (≈ 3.7 µg/mL)
MIC (Trichosporon beigelii): 3.13 µM (≈ 7.42 µg/mL)
MIC (Fusarium verticillioides): 12.5 µM (≈ 29.6 µg/mL)
MIC (Proteus vulgaris): 3.13 µM (≈ 7.42 µg/mL)
MIC (Pseudomonas aeruginosa): 6.25 µM (≈ 14.8 µg/mL)
SMILES: CC[C@H](C)[C@H](NC(=O)[C@H](CCCCN)NC(=O)[C@H](CO)NC(=O)[C@H](Cc1ccccc1)NC(=O)[C@H](CC(C)C)NC(=O)[C@H](CCCCN)NC(=O)[C@H](CCC(=O)O)NC(=O)[C@H](CC(C)C)NC(=O)[C@H](CCCN=C(N)N)NC(=O)[C@H](CCCCN)NC(=O)[C@H](Cc1ccccc1)NC(=O)[C@@H](NC(=O)[C@H](CCCCN)NC(=O)[C@H](CCCCN)NC(=O)[C@H](C)N)C(C)C)C(=O)N[C@@H](Cc1ccccc1)C(=O)N[C@@H](CC(N)=O)C(=O)N[C@@H](Cc1ccccc1)C(=O)N[C@@H](CCCCN)C(N)=O [AKKVFKRLEKLFSKIFNFK]

MIC (Staphylococcus aureus MR): 0.707 µM (≈ 1.75 µg/mL)
MIC (Staphylococcus aureus): 1 µM (≈ 2.47 µg/mL)
MIC [12]: 2 µM (≈ 4.95 µg/mL)
MIC (Escherichia coli): 1 µM (≈ 2.47 µg/mL)
MIC (Salmonella typhimurium): 0.5 µM (≈ 1.24 µg/mL)
MIC (Enterococcus faecalis VR): 1 µM (≈ 2.47 µg/mL)
MIC (Bacillus subtilis): 0.5 µM (≈ 1.24 µg/mL)
MIC (Pseudomonas aeruginosa): 2 µM (≈ 4.95 µg/mL)
SMILES: CC(C)C[C@H](NC(=O)CNC(=O)[C@H](C)NC(=O)[C@H](CCCN=C(N)N)NC(=O)[C@H](CO)NC(=O)[C@H](CO)NC(=O)[C@H](CCCN=C(N)N)NC(=O)[C@@H](N)[C@@H](C)O)C(=O)N[C@@H](CCC(N)=O)C(=O)N[C@@H](Cc1c[nH]c2ccccc12)C(=O)N1CCC[C@H]1C(=O)N[C@H](C(=O)NCC(=O)N[C@@H](CCCN=C(N)N)C(=O)N[C@H](C(=O)N[C@@H](Cc1cnc[nH]1)C(=O)N[C@@H](CCCN=C(N)N)C(=O)N[C@@H](CC(C)C)C(=O)N[C@@H](CC(C)C)C(=O)N[C@@H](CCCN=C(N)N)C(=O)N[C@@H](CCCCN)C(=O)O)C(C)C)C(C)C [TRSSRAGLQWPVGRVHRLLRK]

MIC [16]: 22.4 µM (≈ 31.7 µg/mL)
MIC [17]: ≥ 100 µM
MIC [18]: 22.4 µM (≈ 31.7 µg/mL)
MIC [19]: ≥ 100 µM
SMILES: CC[C@H](C)[C@H](NC(=O)[C@H](CCCCN)NC(=O)[C@H](CCCCN)NC(=O)[C@H](Cc1ccccc1)NC(=O)[C@H](CC(C)C)NC(=O)[C@H](CCCCN)NC(=O)[C@@H](N)Cc1c[nH]c2ccccc12)C(=O)N[C@@H](CC(C)C)C(=O)N[C@@H](CCCCN)C(=O)N[C@H](C(=O)N[C@@H](CC(C)C)C(=O)O)C(C)C [WKLFKKILKVL]

MIC [20]: 4 µM (≈ 10.2 µg/mL)
MIC [21]: ≥ 32 µM and 16 µM
MIC [22]: 8 µM and 4 µM
MIC [8]: 2 µM and 4 µM
MIC [23]: 8 µM and 16 µM
MIC [24]: 4 µM and 8 µM
SMILES: CC[C@H](C)[C@H](NC(=O)[C@H](Cc1cnc[nH]1)NC(=O)[C@H](Cc1cnc[nH]1)NC(=O)[C@@H](NC(=O)[C@H](CC(C)C)NC(=O)[C@H](Cc1cnc[nH]1)NC(=O)CNC(=O)[C@H](CCCCN)NC(=O)CNC(=O)[C@H](Cc1cnc[nH]1)NC(=O)[C@H](CCCCN)NC(=O)[C@@H](NC(=O)[C@H](CO)NC(=O)CNC(=O)[C@H](CCCCN)NC(=O)[C@H](Cc1ccccc1)NC(=O)[C@H](CCCN=C(N)N)NC(=O)[C@H](CCCCN)NC(=O)[C@@H](N)Cc1ccccc1)C(C)C)C(C)C)C(=O)NCC(=O)N[C@H](C(=O)N[C@@H](C)C(=O)N[C@@H](CC(C)C)C(N)=O)C(C)C [FKRFKGSVKHGKGHLVHHIGVAL]
